Assay results from patent publication US20050239656A1, “Pyridine compounds or salts thereof and herbicides containing the same” (priority 2002, published 2005).

What was measured:
[1] = tested on: barnyardgrass; test: Test Example 1: foliage treatment, upland pot test; format: in vivo, Echinochloa crus-galli L.; conditions: observed 18th to 23rd day, 0 = non-treated, 100 = complete kill
Outline: (§1)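 Sow in upland field soil; grow to leaf stage (barnyardgrass 1.3–2.8, soybean 0.1–0.4, wheat 1.3–2.4, rice 1.2–2.6); spray foliage with compound in water, 500 L/ha, spreader 0.1% (v/v); assess visually at 18–23 d, 0 (as untreated) to 100 (full kill).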

[2] = tested on: crabgrass; test: Test Example 1: foliage treatment, upland pot test; format: in vivo, Digitaria sanguinalis L.; conditions: observed 18th to 23rd day, 0 = non-treated, 100 = complete kill
[3] = tested on: green foxtail; test: Test Example 1: foliage treatment, upland pot test; format: in vivo, Setaria viridis L.; conditions: observed 18th to 23rd day, 0 = non-treated, 100 = complete kill
[4] = tested on: redroot pigweed; test: Test Example 1: foliage treatment, upland pot test; format: in vivo, Amaranthus retroflexus L.; conditions: observed 18th to 23rd day, 0 = non-treated, 100 = complete kill
[5] = tested on: prickly sida; test: Test Example 1: foliage treatment, upland pot test; format: in vivo, Sida spinosa L.; conditions: observed 18th to 23rd day, 0 = non-treated, 100 = complete kill
[6] = tested on: velvetleaf; test: Test Example 1: foliage treatment, upland pot test; format: in vivo, Abutilon theophrasti MEDIC.; conditions: observed 18th to 23rd day, 0 = non-treated, 100 = complete kill
[7] = tested on: rice; test: Test Example 1: foliage treatment, upland pot test; format: in vivo, Oryza sativa L.; conditions: crop, observed 18th to 23rd day, 0 = non-treated, 100 = complete kill
Outline: as §1

[8] = tested on: wheat; test: Test Example 1: foliage treatment, upland pot test; format: in vivo, Triticum spp.; conditions: crop, observed 18th to 23rd day, 0 = non-treated, 100 = complete kill
Excerpt: Upland field soil was put into a 1/170,000 ha pot, and seed of various plants were sown. Then, when the plants reached predetermined leaf stages ((1) barnyardgrass: 1.3 to 2.8 leaf stages, (2) crabgrass: 1.0 to 2.8 leaf stages, (3) green foxtail: 1.3 to 2.6 leaf stages, (4) redroot pigweed: 0.1 to 1.2 leaf stages, (5) prickly sida: 0.1 to 1.2 leaf stages, (6) velvetleaf: 0.1 to 1.2 leaf stages, (7) tall morningglory: 0.1 to 1.5 leaf stages, (8) rice: 1.2 to 2.6 leaf stages, (9) wheat: 1.3 to 2.4 leaf stages, (10) corn, 2.1 to 3.2 leaf stages, (11) soybean: 0.1 to 0.4 leaf stage), a wettable powder or emulsifiable concentrate having the compound of the present invention formulated in accordance with a usual formulation method, was weighed so that the active ingredient would be a predetermined amount, and diluted with water in an amount of 500 L/ha. To the diluted solution, 0.1% (v/v) of agricultural spreader was added. The herbicide thus adjusted was applied by a small size sprayer for foliage treatment. On the 18th to 23rd days after the application of the herbicide, the growth of the respective plants was visually observed, and the herbicidal effects were evaluated by the growth controlling degrees (%) ranging from 0 (equivalent to the non-treated plot) to 100 (complete kill), whereby the results shown in Table 3, were obtained.

[9] = tested on: corn; test: Test Example 1: foliage treatment, upland pot test; format: in vivo, Zea mays L.; conditions: crop, observed 18th to 23rd day, 0 = non-treated, 100 = complete kill
Outline: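 Corn seeds were sown in upland field soil held in a 1/170,000 ha pot and grown to the 2.1 to 3.2 leaf stage. A wettable powder or emulsifiable concentrate of the test compound was diluted with water at 500 L/ha, given 0.1% (v/v) agricultural spreader, and sprayed onto the foliage with a small sprayer. Growth controlling degree (%) was scored visually 18th to 23rd days later, from 0 (non-treated) to 100 (complete kill).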

[10] = tested on: soybean; test: Test Example 1: foliage treatment, upland pot test; format: in vivo, Glycine max Merr.; conditions: crop, observed 18th to 23rd day, 0 = non-treated, 100 = complete kill
Outline: as §1

[11] = tested on: barnyardgrass; test: Test Example 2: soil surface treatment, upland pot test; format: in vivo, Echinochloa crus-galli L.; conditions: active ingredient 500 g/ha, observed 20th to 28th day
Outline: (§2)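 In this pre-emergence upland pot test, a small sprayer delivered the diluted compound formulation (1,500 L/ha water) to the soil surface the day after seeding. Plants were then observed, and control was scored from 0 to 100% some 20–28 days after treatment.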

[12] = tested on: crabgrass; test: as above; format: in vivo, Digitaria sanguinalis L.; conditions: active ingredient 500 g/ha, observed 20th to 28th day
Outline: as §2

[13] = tested on: green foxtail; test: as above; format: in vivo, Setaria viridis L.; conditions: active ingredient 500 g/ha, observed 20th to 28th day
Outline: as §2

[14] = tested on: redroot pigweed; test: as above; format: in vivo, Amaranthus retroflexus L.; conditions: active ingredient 500 g/ha, observed 20th to 28th day
Outline: as §2

[15] = tested on: prickly sida; test: as above; format: in vivo, Sida spinosa L.; conditions: active ingredient 500 g/ha, observed 20th to 28th day
Outline: as §2

[16] = tested on: velvetleaf; test: as above; format: in vivo, Abutilon theophrasti MEDIC.; conditions: active ingredient 500 g/ha, observed 20th to 28th day
Outline: as §2

[17] = tested on: rice; test: as above; format: in vivo, Oryza sativa L.; conditions: active ingredient 500 g/ha, observed 20th to 28th day
Outline: as §2

[18] = tested on: corn; test: as above; format: in vivo, Zea mays L.; conditions: active ingredient 500 g/ha, observed 20th to 28th day
Outline: as §2

[19] = tested on: soybean; test: as above; format: in vivo, Glycine max Merr.; conditions: active ingredient 500 g/ha, observed 20th to 28th day
Outline: as §2

[20] = tested on: barnyardgrass; test: Test Example 3: paddy pot test, application under submerged conditions; format: in vivo, Echinochloa crus-galli L.; conditions: active ingredient 500 g/ha; submerged application at 0.5 leaf stage; visually observed 14 days after application; 0 = non-treated, 100 = complete kill
Outline: (§3)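 Paddy soil pots; seeds sown, lightly covered; flooded 0.5–1 cm in greenhouse; wapato tubers planted day 1–2; flood raised to 3–4 cm. Submerged pipette application at 0.5 leaf / primary leaf stage. Visual score day 14, 0–100%.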

[21] = tested on: japanese bulrush; test: as above; format: in vivo, Scirpus juncoides; conditions: active ingredient 500 g/ha; submerged application at 0.5 leaf stage; visually observed 14 days after application; 0 = non-treated, 100 = complete kill
Outline: as §3

[22] = tested on: japanese ribbon wapato; test: as above; format: in vivo, Sagittaria pygniaea; conditions: active ingredient 500 g/ha; submerged application at primary leaf stage; visually observed 14 days after application; 0 = non-treated, 100 = complete kill
Outline: as §3

[23] = tested on: rice (var. Nihonbare); test: Test Example 3: paddy pot test, transplanted rice; format: in vivo, Oryza sativa L.; conditions: active ingredient 500 g/ha, applied 4th day after transplantation, visually observed 21st day after application, 0 = non-treated, 100 = complete kill
Outline: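 Visual crop-injury rating (0 = as untreated, 100 = complete kill, %) taken 21 days post-application. Treatment: formulated compound, water-diluted, pipetted into 3–4 cm flood water at a preset active-ingredient dose, 4 days after transplanting 2-leaf Nihonbare rice 3 cm deep in puddled paddy soil.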

## COc1ccc(C=CC(=O)N(C)C(c2cnccc2C(F)(F)F)C(C)C)cc1 (centres unmarked) [I-182]
[1]; active ingredient 500 g/ha
  Growth controlling degree (%) Barnyardgrass: 80%
[2]; active ingredient 500 g/ha
  Growth controlling degree (%) Crabgrass: 80%
[3]; active ingredient 500 g/ha
  Growth controlling degree (%) Green foxtail: 50%
[4]; active ingredient 500 g/ha
  Growth controlling degree (%) Redroot pigweed: 50%
[5]; active ingredient 500 g/ha
  Growth controlling degree (%) Prickly sida: 70%
[6]; active ingredient 500 g/ha
  Growth controlling degree (%) Velvetleaf: 50%
[7]; active ingredient 500 g/ha
  Growth controlling degree (%) Rice: 20%
[8]; active ingredient 500 g/ha
  Growth controlling degree (%) wheat: 10%
[9]; active ingredient 500 g/ha
  Growth controlling degree (%) Corn: 60%
[10]; active ingredient 500 g/ha
  Growth controlling degree (%) Soybean: 70%
[11]
  Growth controlling degree (%) Barnyardgrass: 90%
[12]
  Growth controlling degree (%) Crabgrass: 100%
[13]
  Growth controlling degree (%) Green foxtail: 95%
[14]
  Growth controlling degree (%) Redroot pigweed: 30%
[15]
  Growth controlling degree (%) Prickly sida: 10%
[16]
  Growth controlling degree (%) Velvetleaf: 50%
[17]
  Growth controlling degree (%) Rice: 50%
[18]
  Growth controlling degree (%) Corn: 10%
[19]
  Growth controlling degree (%) Soyabean: 10%
[20]
  Growth controlling degree (%) Barnyardgrass: 100%
[21]
  Growth controlling degree (%) Japanese bulrush: 98%
[22]
  Growth controlling degree (%) Japanese ribbon wapato: 80%
[23]
  Growth controlling degree (%) Rice: 0%

## CC(C)C(c1cnccc1C(F)(F)F)N(C)C(=O)C=Cc1cccc2ccccc12 (centres unmarked) [I-187]
[1]; active ingredient 1000 g/ha
  Growth controlling degree (%) Barnyardgrass: 60%
[2]; active ingredient 1000 g/ha
  Growth controlling degree (%) Crabgrass: 95%
[3]; active ingredient 1000 g/ha
  Growth controlling degree (%) Green foxtail: 60%
[4]; active ingredient 1000 g/ha
  Growth controlling degree (%) Redroot pigweed: 80%
[5]; active ingredient 1000 g/ha
  Growth controlling degree (%) Prickly sida: 90%
[6]; active ingredient 1000 g/ha
  Growth controlling degree (%) Velvetleaf: 40%
[7]; active ingredient 1000 g/ha
  Growth controlling degree (%) Rice: 30%
[8]; active ingredient 1000 g/ha
  Growth controlling degree (%) wheat: 10%
[9]; active ingredient 1000 g/ha
  Growth controlling degree (%) Corn: 80%
[10]; active ingredient 1000 g/ha
  Growth controlling degree (%) Soybean: 60%
[20]
  Growth controlling degree (%) Barnyardgrass: 100%
[21]
  Growth controlling degree (%) Japanese bulrush: 10%
[22]
  Growth controlling degree (%) Japanese ribbon wapato: 20%
[23]
  Growth controlling degree (%) Rice: 0%

## CC(C)C(c1cnccc1C(F)(F)F)N(C)C(=O)C=Cc1ccc(C(F)(F)F)cc1 (centres unmarked) [I-186]
[1]; active ingredient 500 g/ha
  Growth controlling degree (%) Barnyardgrass: 50%
[2]; active ingredient 500 g/ha
  Growth controlling degree (%) Crabgrass: 60%
[3]; active ingredient 500 g/ha
  Growth controlling degree (%) Green foxtail: 40%
[4]; active ingredient 500 g/ha
  Growth controlling degree (%) Redroot pigweed: 50%
[5]; active ingredient 500 g/ha
  Growth controlling degree (%) Prickly sida: 60%
[6]; active ingredient 500 g/ha
  Growth controlling degree (%) Velvetleaf: 60%
[7]; active ingredient 500 g/ha
  Growth controlling degree (%) Rice: 10%
[8]; active ingredient 500 g/ha
  Growth controlling degree (%) wheat: 60%
[9]; active ingredient 500 g/ha
  Growth controlling degree (%) Corn: 50%
[10]; active ingredient 500 g/ha
  Growth controlling degree (%) Soybean: 70%
[11]
  Growth controlling degree (%) Barnyardgrass: 40%
[12]
  Growth controlling degree (%) Crabgrass: 98%
[13]
  Growth controlling degree (%) Green foxtail: 100%
[14]
  Growth controlling degree (%) Redroot pigweed: 40%
[15]
  Growth controlling degree (%) Prickly sida: 10%
[16]
  Growth controlling degree (%) Velvetleaf: 0%
[17]
  Growth controlling degree (%) Rice: 20%
[18]
  Growth controlling degree (%) Corn: 30%
[19]
  Growth controlling degree (%) Soyabean: 0%
[20]
  Growth controlling degree (%) Barnyardgrass: 98%
[21]
  Growth controlling degree (%) Japanese bulrush: 95%
[23]
  Growth controlling degree (%) Rice: 10%
